pEC50: −log10 of the molar value. Where two headings read alike, the source gives them in different places. No end group written: not given here.
Molecular target: T1, GPR103 ΔCterm (Homo sapiens, UniProt Q96P65)
T1 construct: we truncated the C-terminal residues after G366 of human GPR103; expressed in transfected cells; host or cells: HEK293 cells, pCAGGS vector
T1 sequence (Q96P65 1-366): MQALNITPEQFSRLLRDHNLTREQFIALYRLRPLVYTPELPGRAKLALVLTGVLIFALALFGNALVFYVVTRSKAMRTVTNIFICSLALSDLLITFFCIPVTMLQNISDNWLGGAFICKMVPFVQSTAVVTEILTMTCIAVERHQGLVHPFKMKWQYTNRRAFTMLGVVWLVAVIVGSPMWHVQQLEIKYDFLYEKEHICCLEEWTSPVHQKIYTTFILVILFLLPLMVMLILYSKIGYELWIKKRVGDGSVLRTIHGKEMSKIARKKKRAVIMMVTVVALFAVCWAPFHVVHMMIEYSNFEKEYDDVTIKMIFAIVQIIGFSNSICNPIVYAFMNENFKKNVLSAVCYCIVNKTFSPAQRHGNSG
Assay: TGFα shedding assay; Exp. level WT (1:20)
Format: cell-based

- Emax (Exp. #1): 83.85 % WT
- Emax (Exp. #2): 86.40 % WT
- Emax (Exp. #3): 89.99 % WT
- Emax (mean, read-out: Emax): 86.8%
- pEC50 (n = 3): 7.95
Substance: TSGPLGNLAEELNGYSRKKGGFSFRF-NH2 [QRFP26]

— PMC11187126, “Structure and dynamics of the pyroglutamylated RF-amide peptide QRFP receptor GPR103” (Nature Communications, 2024)
